Source: US9643974B2, “Amino-substituted imidazopyridazines” (Bayer Intellectual Property GmbH, priority 2011, dated 2017)

Tests used:
human full-length MKNK1 = biological target: T1, human full-length MKNK1 (Homo sapiens, UniProt Q9BUB5, T385D); experiment: MKNK1 kinase high ATP assay (TR-FRET-based); format: biochemical; conditions: ATP final conc. 2 mM, 15 min preincubation, 30 min reaction at 22° C.
T1 construct: purchased Carna Biosciences 02-145; host or cells: insect cells (baculovirus expression system)
T1 sequence (Q9BUB5 1-424 isoform Q9BUB5-2 T344D): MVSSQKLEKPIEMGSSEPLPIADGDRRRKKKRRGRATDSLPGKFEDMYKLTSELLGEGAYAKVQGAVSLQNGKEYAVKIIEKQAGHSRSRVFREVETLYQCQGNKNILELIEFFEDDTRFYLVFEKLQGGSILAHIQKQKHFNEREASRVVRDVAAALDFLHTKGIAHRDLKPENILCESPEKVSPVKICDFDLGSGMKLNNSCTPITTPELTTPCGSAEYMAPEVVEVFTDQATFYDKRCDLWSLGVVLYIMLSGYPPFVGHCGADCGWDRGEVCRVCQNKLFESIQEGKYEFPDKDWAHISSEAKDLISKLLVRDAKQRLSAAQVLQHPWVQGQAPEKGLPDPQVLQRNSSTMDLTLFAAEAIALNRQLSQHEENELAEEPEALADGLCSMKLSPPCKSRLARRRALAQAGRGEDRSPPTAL
Protocol: MKNK1 Kinase High ATP Assay
MKNK1-inhibitory activity at high ATP of compounds of the present invention after their preincubation with MKNK1 was quantified employing the TR-FRET-based MKNK1 high ATP assay as described in the following paragraphs.
(§1) A recombinant fusion protein of Glutathione-S-Transferase (GST, N-terminally) and human full-length MKNK1 (amino acids 1-424 and T344D of accession number BAA 19885.1), expressed in insect cells using baculovirus expression system and purified via glutathione sepharose affinity chromatography, was purchased from Carna Biosciences (product no 02-145) and used as enzyme. As substrate for the kinase reaction the biotinylated peptide biotin-Ahx-IKKRKLTRRKSLKG (C-terminus in amide form) was used, which can be purchased e.g. from the company Biosyntan (Berlin-Buch, Germany).
(§2) For the assay 50 nL of a 100 fold concentrated solution of the test compound in DMSO was pipetted into a black low volume 384 well microtiter plate (Greiner Bio-One, Frickenhausen, Germany), 2 μL of a solution of MKNK1 in aqueous assay buffer [50 mM HEPES pH 7.5, 5 mM magnesium chloride, 1.0 mM dithiothreitol, 0.005% (v/v) Nonidet-P40 (Sigma)] was added and the mixture was incubated for 15 min at 22° C. to allow pre-binding of the test compounds to the enzyme before the start of the kinase reaction. Then the kinase reaction was started by the addition of 3 μL of a solution of adenosine-tri-phosphate (ATP, 3.3 mM=>final conc. in the 5 μL assay volume is 2 mM) and substrate (0.1 μM=>final conc. in the 5 μL assay volume is 0.06 μM) in assay buffer and the resulting mixture was incubated for a reaction time of 30 min at 22° C. The concentration of MKNK1 was adjusted depending of the activity of the enzyme lot and was chosen appropriate to have the assay in the linear range, typical concentrations were in the range of 0.003 μg/mL. The reaction was stopped by the addition of 5 μL of a solution of TR-FRET detection reagents (5 nM streptavidine-XL665 [Cisbio Bioassays, Codolet, France] and 1 nM anti-ribosomal protein S6 (pSer236)-antibody from Invitrogen [#44921G] and 1 nM LANCE EU-W1024 labeled ProteinG [Perkin-Elmer, product no. AD0071]) in an aqueous EDTA-solution (100 mM EDTA, 0.1% (w/v) bovine serum albumin in 50 mM HEPES pH 7.5).
(§3) The resulting mixture was incubated for 1 h at 22° C. to allow the formation of complex between the phosphorylated biotinylated peptide and the detection reagents. Subsequently the amount of phosphorylated substrate was evaluated by measurement of the resonance energy transfer from the Eu-chelate to the streptavidine-XL. Therefore, the fluorescence emissions at 620 nm and 665 nm after excitation at 350 nm were measured in a TR-FRET reader, e.g. a Rubystar (BMG Labtechnologies, Offenburg, Germany) or a Viewlux (Perkin-Elmer). The ratio of the emissions at 665 nm and at […] was taken as the measure for the amount of phosphorylated substrate. The data were normalised (enzyme reaction without inhibitor=0% inhibition, all other assay components but no enzyme=100% inhibition).

human full-lengt MKNK1 = biological target: T2, human full-lengt MKNK1 (Homo sapiens, UniProt Q9BUB5, T385D); experiment: MKNK1 kinase assay (MKNK1 TR-FRET assay); format: biochemical; conditions: ATP final conc. 10 μM, 15 min preincubation, 45 min reaction at 22° C.
T2 construct: purchased Carna Biosciences 02-145; host or cells: insect cells (baculovirus expression system)
T2 sequence (Q9BUB5 1-424 isoform Q9BUB5-2 T344D): as above
Source text: MKNK1-inhibitory activity of compounds of the present invention was quantified employing the MKNK1 TR-FRET assay as described in the following paragraphs.
as §1, with “human full-lengt” for “human full-length”, “was used” for “was used,”, “e.g. form” for “e.g. from”
as §2, with “16.7 μM=>final” for “3.3 mM=>final”, “10 μM)” for “2 mM)”, “45” for “30”, “0.05 μg/ml.” for “0.003 μg/mL.”
as §3, with “inhibition). Usually the test compounds were tested on the same microtiterplate in 11 different concentrations in the range of 20 μM to 0.1 nM (20 μM, 5.9 μM, 1.7 μM, 0.51 μM, 0.15 μM, 44 nM, 13 nM, 3.8 nM, 1.1 nM, 0.33 nM and 0.1 nM, the dilution series prepared separately before the assay on the level of the 100 fold concentrated solutions in DMSO by serial 1:3.4 dilutions) in duplicate values for each concentration and […] were calculated by a 4 parameter fit.” for “inhibition).”

| SMILES | IC50 (human full-length MKNK1) | IC50 (human full-lengt MKNK1) |
| --- | --- | --- |
| CC(C)Oc1nccc2oc(-c3cnc4ccc(O[C@H]5C[C@H](N)C5)nn34)cc12 [Example 37, trans-3-({3-[4-(Propan-2-yloxy)furo[3,2-c]pyridin-2-yl]imidazo[1,2-b]pyridazin-6-yl}oxy)cyclobutanamine] | 17 nM | 7 nM |
| CCOc1nccc2oc(-c3cnc4ccc(OC[C@@H](C)N)nn34)cc12 [Example 38, (2R)-1-{[3-(4-Ethoxyfuro[3,2-c]pyridin-2-yl)imidazo[1,2-b]pyridazin-6-yl]oxy}-propan-2-amine] | 23 nM | 8 nM |
| CCN(C(=O)OC(C)(C)C)c1nccc2oc(-c3cnc4ccc(OC[C@H](C)N)nn34)cc12 [Example 39, tert-Butyl[2-(6-{[(2S)-2-aminopropyl]oxy}imidazo[1,2-b]pyridazin-3-yl)-furo[3,2-c]pyridin-4-yl]ethylcarbamate] | 593 nM | 250 nM |
| CCNc1nccc2oc(-c3cnc4ccc(OC[C@H](C)N)nn34)cc12 [Example 40, 2-(6-{[(2S)-2-Aminopropyl]oxy}imidazo[1,2-b]pyridazin-3-yl)-N-ethylfuro[3,2-c]pyridin-4-amine] | 13 nM | 5 nM |
